The compounds below were run against T1, chimeric human H3 receptor (Homo sapiens, UniProt Q9Y5N1) (assay: Chimeric human H3 receptor screening GTP binding assay (inhibition of histamine-stimulated GTP-gamma35S binding, Example 8)). Conditions: 4 μM of the compound, 1 μM histamine, "†" in Ki of Table II, read-out: percent inhibition of the signal obtained with 1 μM histamine.
T1 construct: made in house; host or cells: Sf9 insect cells (baculovirus); P2 membrane preparation
Format: biochemical
Method in brief: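 Sf9 membranes co-expressing chimeric human H3 receptor and heterotrimeric G-protein, 35 μg per reaction, incubated 60 min at room temperature with 4 μM compound, 1 μM histamine, 10 μM GDP and […] GTP-gamma35S at pH 7.4. Filter-bound radioactivity counted. Result expressed as percent inhibition of the histamine signal after subtracting non-specific binding (10 μM GTP-gammaS).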

T1 sequence (Q9Y5N1 with tags, fused parts or gaps): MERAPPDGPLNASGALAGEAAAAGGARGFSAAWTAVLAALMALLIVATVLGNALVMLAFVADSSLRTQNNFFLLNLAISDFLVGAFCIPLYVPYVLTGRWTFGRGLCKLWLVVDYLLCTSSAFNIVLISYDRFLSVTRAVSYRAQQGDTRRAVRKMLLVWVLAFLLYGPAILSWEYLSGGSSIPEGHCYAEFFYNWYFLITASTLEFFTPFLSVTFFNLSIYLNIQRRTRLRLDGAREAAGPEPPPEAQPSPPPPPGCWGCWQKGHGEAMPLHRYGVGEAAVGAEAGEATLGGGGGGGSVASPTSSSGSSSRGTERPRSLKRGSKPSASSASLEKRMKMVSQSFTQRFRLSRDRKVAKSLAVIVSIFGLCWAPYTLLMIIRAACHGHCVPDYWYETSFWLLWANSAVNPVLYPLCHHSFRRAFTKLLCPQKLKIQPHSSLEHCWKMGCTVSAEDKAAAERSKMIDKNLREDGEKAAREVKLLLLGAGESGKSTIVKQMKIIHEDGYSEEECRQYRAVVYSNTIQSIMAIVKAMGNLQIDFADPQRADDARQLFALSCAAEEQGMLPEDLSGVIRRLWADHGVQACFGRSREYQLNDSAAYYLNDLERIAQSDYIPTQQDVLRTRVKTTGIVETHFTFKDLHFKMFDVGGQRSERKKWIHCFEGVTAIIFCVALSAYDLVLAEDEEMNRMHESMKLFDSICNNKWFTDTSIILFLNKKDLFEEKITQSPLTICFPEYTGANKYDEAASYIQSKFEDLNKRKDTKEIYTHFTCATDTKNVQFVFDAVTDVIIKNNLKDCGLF

SMILES	inhibition at 4 µM [%]
O=C(CN1CCc2cc(-c3ccc4ccccc4c3)ccc2C1)N1CCN(C2CCCC2)CC1 [Compound 417, 2-[2-(4-cyclopentylpiperazin-1-yl)-2-oxoethyl]-6-(2-naphthyl)-1,2,3,4-tetrahydroisoquinoline]	≥ 90
O=C(CN1CCc2cc(-c3ccc(OC(F)(F)F)cc3)ccc2C1)N1CCN(C2CCC2)CC1 [Compound 478, 2-[2-(4-cyclobutylpiperazin-1-yl)-2-oxoethyl]-6-[4-(trifluoromethoxy)phenyl]-1,2,3,4-tetrahydroisoquinoline]	≥ 90
Cc1ccc(F)c(-c2ccc3c(c2)CCN(CC(=O)N2CCN(C4CCCC4)CC2)C3)c1 [Compound 424, 2-[2-(4-cyclopentylpiperazin-1-yl)-2-oxoethyl]-6-(2-fluoro-5-methylphenyl)-1,2,3,4-tetrahydroisoquinoline]	≥ 90
CCCc1ccc(-c2ccc3c(c2)CCN(CC(=O)N2CCN(C4CCCCC4)CC2)C3)cc1 [Compound 465, 2-[2-(4-cyclohexylpiperazin-1-yl)-2-oxoethyl]-6-(4-propylphenyl)-1,2,3,4-tetrahydroisoquinoline]	≥ 90

Same assay, conditions: Table II "Ki", symbol †, 4 μM of the compound, 1 μM histamine, read-out: percent inhibition of the signal obtained with 1 μM histamine

SMILES	inhibition at 4 µM [%]
COc1ccc(Cl)cc1-c1ccc2c(c1)CCN(CC(=O)N1CCN(C3CCC3)CC1)C2 [Compound 557, 6-(5-chloro-2-methoxyphenyl)-2-[2-(4-cyclobutylpiperazin-1-yl)-2-oxoethyl]-1,2,3,4-tetrahydroisoquinoline]	≥ 90
CCOc1ccccc1-c1ccc2c(c1)CCN(CC(=O)N1CCN(C3CCCCC3)CC1)C2 [Compound 568, 2-[2-(4-cyclohexylpiperazin-1-yl)-2-oxoethyl]-6-(2-ethoxyphenyl)-1,2,3,4-tetrahydroisoquinoline]	≥ 90
CC(C)C(C)N1C[C@@H]2C[C@H]1CN2C(=O)CN1CCc2cc(-c3cncnc3)ccc2C1 (stereo in doubt) [Compound 608, 2-{2-[(1S,4S)-5-(1,2-dimethylpropyl)-2,5-diazabicyclo[2.2.1]hept-2-yl]-2-oxoethyl}-6-pyrimidin-5-yl-1,2,3,4-tetrahydroisoquinoline]	≥ 90
O=C(CN1CCc2cc(-c3ccc(Cl)c(Cl)c3)ccc2C1)N1CCN(C2CCC2)CC1 [Compound 594, 2-[2-(4-cyclobutylpiperazin-1-yl)-2-oxoethyl]-6-(3,4-dichlorophenyl)-1,2,3,4-tetrahydroisoquinoline]	≥ 90
CC(C)Oc1cccc(-c2ccc3c(c2)CCN(CC(=O)N2CCN(C(C)C)CC2)C3)c1 [Compound 515, 6-(3-isopropoxyphenyl)-2-[2-(4-isopropylpiperazin-1-yl)-2-oxoethyl]-1,2,3,4-tetrahydroisoquinoline]	≥ 90
COc1ccc2cc(-c3ccc4c(c3)CCN(CC(=O)N3CCN(C5CCCC5)CC3)C4)ccc2c1 [Compound 510, 2-[2-(4-cyclopentylpiperazin-1-yl)-2-oxoethyl]-6-(6-methoxy-2-naphthyl)-1,2,3,4-tetrahydroisoquinoline]	≥ 90
O=C(CN1CCc2cc(-c3cc(Cl)cc(Cl)c3)ccc2C1)N1CCN(C2CCC2)CC1 [Compound 592, 2-[2-(4-cyclobutylpiperazin-1-yl)-2-oxoethyl]-6-(3,5-dichlorophenyl)-1,2,3,4-tetrahydroisoquinoline]	≥ 90
CCOc1ccc(-c2ccc3c(c2)CCN(CC(=O)N2CCN(C(C)C)CC2)C3)cc1 [Compound 531, 6-(4-ethoxyphenyl)-2-[2-(4-isopropylpiperazin-1-yl)-2-oxoethyl]-1,2,3,4-tetrahydroisoquinoline]	≥ 90
O=C(CN1CCc2cc(-c3ccc(Cl)c(Cl)c3)ccc2C1)N1CCN(C2CCCC2)CC1 [Compound 595, 2-[2-(4-cyclopentylpiperazin-1-yl)-2-oxoethyl]-6-(3,4-dichlorophenyl)-1,2,3,4-tetrahydroisoquinoline]	≥ 90
COc1ccc(C)cc1-c1ccc2c(c1)CCN(CC(=O)N1CCN(C3CCC3)CC1)C2 [Compound 572, 2-[2-(4-cyclobutylpiperazin-1-yl)-2-oxoethyl]-6-(2-methoxy-5-methylphenyl)-1,2,3,4-tetrahydroisoquinoline]	≥ 90

Reference: patent US20110082130A1 (LIGAND PHARMACEUTICALS, INC., priority 2006, published 2011)
